In article PMC6272238, “Synthesis and Pharmacophore Modelling of 2,6,9-Trisubstituted Purine Derivatives and Their Potential Role as Apoptosis-Inducing Agents in Cancer Cell Lines” (Molecules, 2015):

Experiments:
H1975 (lung) cells = experiment: MTT cytotoxicity assay on H1975 cells; format: cell-based, human; conditions: for IC50: MTT, 72 h continuous exposure, triplicate, range 0.05 to 50 µM; for Selectivity Index (SI) (Vero/H1975): ratio IC50 (Vero)/IC50 (H1975)
Protocol: (§1) The potential in vitro antitumor activity of compounds 4a–l was initially tested for their cytotoxic effects on H1975, HL-60, HCT116 and HeLa cancer cell lines and Vero cells. […]
(§2) Cancer cell lines were grown at 37 °C in humidified atmosphere and 5% CO2. H1975, HL60, HTC116 and Vero cells were grown in RPMI 1640 culture medium supplemented with 10% fetal bovine serum and (100 UI/mL) penicillin-streptomicyn. HeLa cells were grown in EMEM culture medium, supplemented with 10% fetal bovine serum and (100 UI/mL) penicillin-streptomicyn.
(§3) Cytotoxicity assays were performed by using the MTT reduction method as described previously. Briefly, cancer cell lines were plated in a flat-bottom 96-wells plate at 10,000 cells per well density. […] Ten µL of MTT was added at a final concentration of 0.5 mg/mL, incubated at 37 °C for 4 h, and then solubilized with 10% sodium dodecyl sulfate (SDS) in 0.1 mM HCl and incubated overnight at 37 °C. Formazan formation was measured at 570 nm in a multiwell reader (StatFax 4200, Awareness Technology, Inc. Palm City, FL, USA).
(§4) Values are expressed as means ± standard deviations from three independent experiments. IC50 values, (Compound concentration necessary to decrease at 50% the MTT reduction) and the two-way analysis of variance (ANOVA) test were performed when necessary with Prism GraphPad 6.0f software (GraphPad Software Inc., San Diego, CA, USA).

Vero cells = experiment: MTT cytotoxicity assay on Vero cells; format: cell-based; conditions: Chlorocebus sabaeus, 72 h continuous exposure, triplicate, range 0.05 to 50 µM
HeLa cells [1] = experiment: MTT cytotoxicity assay on HeLa cells; format: cell-based, human; conditions: for IC50: MTT, 72 h continuous exposure, triplicate, range 0.05 to 50 µM; for Selectivity Index (SI) (Vero/HeLa): ratio IC50 (Vero)/IC50 (HeLa)
Protocol: as §1, §2, §3, §4

HL-60 (leukemia) cells = experiment: MTT cytotoxicity assay on HL-60 cells; format: cell-based, human; conditions: 72 h continuous exposure, triplicate, range 0.05 to 50 µM
Protocol: as §1, §2, §3, §4

[2] = system: HCT116 (colorectal) cells; experiment: MTT cytotoxicity assay on HCT116 cells; format: cell-based, human; conditions: for IC50: MTT, 72 h continuous exposure, triplicate, range 0.05 to 50 µM; for Selectivity Index (SI) (Vero/HCT116): ratio IC50 (Vero)/IC50 (HCT116)
Protocol: as §1, §2, §3, §4

H1975 cells = experiment: Apoptosis/viability assay by FACS with propidium iodide, H1975; format: cell-based, human; conditions: H1975, 50 µM, 16 h, PI staining
Protocol: (§5) To evaluate sensitivity to 4f, 4j and 4k, Vero, HTC116, H1975 and Hela were treated with concentrations of 50 µM for 16 h. Fifty µM etoposide was used as positive control. As it can be seen in Figure 5, 4f, 4j and 4k induced apoptosis as a prevalent type of cell death, in high percentages (>70%), in every cancer cell line. Moreover, 4f, 4j, and 4k induced an apoptotic cell response greater than etoposide.
(§6) Cell viability was analyzed by FACS as previously described. In this assay, after setting the baseline to exclude cell debris, cells impermeable to propidium iodide (PI negative) are considered as viable. Two populations of PI-permeable dead cells are distinguished based on fluorescence intensity, corresponding to either hypodiploid apoptotic cells or necrotic cells with intact DNA. Here, H1975, HTC116, and HeLa cells were incubated with concentrations of 50 µM of each compound for 16 h at 37 °C. Cells were harvested and stained with 10 µg/mL of propidium iodide to determine cell viability. Samples containing roughly 1 × 10^4 cells were evaluated by flow cytometry (FACScanto II; Becton Dickinson, Mountain View, CA, USA) and analyzed using the software program FCS Express v5.

HTC116 cells = experiment: Apoptosis/viability assay by FACS with propidium iodide, HTC116; format: cell-based, human; conditions: HTC116, 50 µM, 16 h, PI staining
Protocol: as §5, §6

HeLa cells [3] = experiment: Apoptosis/viability assay by FACS with propidium iodide, HeLa; format: cell-based, human; conditions: 50 µM, 16 h, PI staining
Protocol: as §5, §6

Compound | IC50 (H1975 (lung) cells; Homo sapiens, NCI-H1975, 72 h) [µM] | IC50 (Vero cells) [µM] | IC50 (HeLa cells [1]; Homo sapiens, HeLa, 72 h) [µM] | IC50 (HL-60 (leukemia) cells; Homo sapiens, HL-60, 72 h) [µM] | IC50 ([2]; Homo sapiens, HCT-116, 72 h) [µM] | melting point [°C] | Selectivity Index (SI) (Vero/H1975) (H1975 (lung) cells) | Selectivity Index (SI) (Vero/HeLa) (HeLa cells [1]) | Selectivity Index (SI) (Vero/HCT116) [2] | apoptosis (percentage of cells) (H1975 cells) [%] | apoptosis (percentage of cells) (HTC116 cells) [%] | apoptosis (percentage of cells) (HeLa cells [3]) [%] | IC50 (H1975 (lung) cells) [µM] | IC50 (HeLa cells [1]) [µM] | IC50 (HL-60 (leukemia) cells) [µM] | IC50 [2] [µM]
COc1cc([C@@H]2c3cc4c(cc3[C@@H](O[C@@H]3O[C@@H]5CO[C@@H](C)O[C@H]5[C@H](O)[C@H]3O)[C@H]3COC(=O)[C@H]23)OCO4)cc(OC)c1O [Etoposide, reference compound] | 8 ± 0.33 | > 25 | 8.2 ± 0.33 | 6.2 ± 0.18 | 2.8 ± 0.24 |  |  |  |  |  |  |  |  |  |  | 
COc1ccc(CNc2nc(NCc3ccccc3)nc3c2ncn3CC(C)C)cc1 [Compound 4i, N^2-Benzyl-9-isobutyl-N^6-(4-methoxybenzyl)-9H-purine-2,6-diamine] | 3.4 ± 0.28 | 1.9 ± 0.24 | 4.9 ± 0.16 | > 50 | 1.6 ± 0.12 | 110 to 112 | 0.56 | 0.39 | 1.19 |  |  |  |  |  |  | 
CC(C)CCn1cnc2c(NCc3ccccc3)nc(NCc3ccccc3)nc21 [Compound 4e, N^2,N^6-Dibenzyl-9-isopentyl-9H-purine-2,6-diamine] | 8.6 ± 0.18 | 2.5 ± 0.14 | 2.7 ± 0.13 | > 50 | 5.1 ± 0.14 | 69 to 70 | 0.29 | 0.93 | 0.49 |  |  |  |  |  |  | 
COc1ccc(CNc2nc(NCc3ccccc3)nc3c2ncn3CCC(C)C)cc1 [Compound 4k, N^2-Benzyl-9-isopentyl-N^6-(4-methoxybenzyl)-9H-purine-2,6-diamine] | 5.6 ± 0.23 | 34 ± 0.13 | 5.4 ± 0.32 | > 50 | 11 ± 0.26 |  | 6.07 | 6.30 | 3.09 | > 70 | > 70 | > 70 |  |  |  | 
CC(C)Cn1cnc2c(NCc3ccccc3)nc(NCc3ccccc3)nc21 [Compound 4c, N^2,N^6-Dibenzyl-9-isobutyl-9H-purine-2,6-diamine] | > 36 | 22 ± 0.23 | > 36 | > 36 | > 36 | 111 to 113 | 0.61 |  |  |  |  |  | 36 ± 0.27 | > 50 | > 50 | > 50
CC(C)n1cnc2c(NCc3ccccc3)nc(NCc3ccccc3)nc21 [Compound 4a, N^2,N^6-Dibenzyl-9-isopropyl-9H-purine-2,6-diamine] | 14 ± 0.26 | 20 ± 0.11 | 32 ± 0.13 | 26 ± 0.13 | 13 ± 0.12 |  | 1.43 | 0.63 | 1.54 |  |  |  |  |  |  | 
CCCCCCn1cnc2c(NCc3ccccc3)nc(NCc3ccccc3)nc21 [Compound 4f, N^2,N^6-Dibenzyl-9-hexyl-9H-purine-2,6-diamine] | 9.9 ± 0.18 | 26 ± 0.12 | 5.3 ± 0.13 | > 50 | 3 ± 0.12 |  | 2.63 | 4.91 | 8.67 | > 70 | > 70 | > 70 |  |  |  | 
CCCCCn1cnc2c(NCc3ccc(OC)cc3)nc(NCc3ccccc3)nc21 [Compound 4j, N^2-Benzyl-N^6-(4-methoxybenzyl)-9-pentyl-9H-purine-2,6-diamine] | 2.3 ± 0.13 | 26 ± 0.18 | 9.5 ± 0.14 | > 50 | 8 ± 0.21 |  | 11.30 | 2.74 | 3.25 | > 70 | > 70 | > 70 |  |  |  | 
CCCCCn1cnc2c(NCc3ccccc3)nc(NCc3ccccc3)nc21 [Compound 4d, N^2,N^6-Dibenzyl-9-pentyl-9H-purine-2,6-diamine] | 12 ± 0.19 | 2.5 ± 0.2 | 10.1 ± 0.14 | > 50 | 11 ± 0.11 | 83 to 86 | 0.21 | 0.25 | 0.23 |  |  |  |  |  |  | 
CCCCn1cnc2c(NCc3ccc(OC)cc3)nc(NCc3ccccc3)nc21 [Compound 4h, N^2-Benzyl-9-butyl-N^6-(4-methoxybenzyl)-9H-purine-2,6-diamine] | 11 ± 0.25 | 17 ± 0.2 | 6.3 ± 0.17 | > 50 | 7 ± 0.16 |  |  |  |  |  |  |  |  |  |  | 
CCCCCCn1cnc2c(NCc3ccc(OC)cc3)nc(NCc3ccccc3)nc21 [Compound 4l, N^2-Benzyl-9-hexyl-N^6-(4-methoxybenzyl)-9H-purine-2,6-diamine] | > 50 | 15 ± 0.06 | 9 ± 0.13 | > 50 | 6.8 ± 0.14 |  |  |  |  |  |  |  |  |  |  | 
COc1ccc(CNc2nc(NCc3ccccc3)nc3c2ncn3C(C)C)cc1 [Compound 4g, N^2-Benzyl-9-isopropyl-N^6-(4-methoxybenzyl)-9H-purine-2,6-diamine] | > 50 | 15 ± 0.23 | 10.7 ± 0.18 | 22 ± 0.13 | 7.1 ± 0.11 | 69 to 70 |  | 1.40 | 2.11 |  |  |  |  |  |  | 
CCCCn1cnc2c(NCc3ccccc3)nc(NCc3ccccc3)nc21 [Compound 4b, N^2,N^6-Dibenzyl-9-butyl-9H-purine-2,6-diamine] | 28 ± 0.08 | 5.6 ± 0.15 | 18 ± 0.14 | > 50 | 7.2 ± 0.16 | 113 to 115 | 0.20 | 0.31 | 0.78 |  |  |  |  |  |  | 
